# Test results published in ChEMBL document CHEMBL5465560, “Selectivity Literature for EUbOPEN Chemogenomic Library” (2024).
# Columns and labels:
# [1] = target: T1, Myosin light chain kinase (Homo sapiens) (UniProt Q32MK0); assay: Selectivity interaction (KinomeScan (DiscoverX)) EUB0000229b MYLK3; details: at 10 µM
# T1 sequence (whole entry): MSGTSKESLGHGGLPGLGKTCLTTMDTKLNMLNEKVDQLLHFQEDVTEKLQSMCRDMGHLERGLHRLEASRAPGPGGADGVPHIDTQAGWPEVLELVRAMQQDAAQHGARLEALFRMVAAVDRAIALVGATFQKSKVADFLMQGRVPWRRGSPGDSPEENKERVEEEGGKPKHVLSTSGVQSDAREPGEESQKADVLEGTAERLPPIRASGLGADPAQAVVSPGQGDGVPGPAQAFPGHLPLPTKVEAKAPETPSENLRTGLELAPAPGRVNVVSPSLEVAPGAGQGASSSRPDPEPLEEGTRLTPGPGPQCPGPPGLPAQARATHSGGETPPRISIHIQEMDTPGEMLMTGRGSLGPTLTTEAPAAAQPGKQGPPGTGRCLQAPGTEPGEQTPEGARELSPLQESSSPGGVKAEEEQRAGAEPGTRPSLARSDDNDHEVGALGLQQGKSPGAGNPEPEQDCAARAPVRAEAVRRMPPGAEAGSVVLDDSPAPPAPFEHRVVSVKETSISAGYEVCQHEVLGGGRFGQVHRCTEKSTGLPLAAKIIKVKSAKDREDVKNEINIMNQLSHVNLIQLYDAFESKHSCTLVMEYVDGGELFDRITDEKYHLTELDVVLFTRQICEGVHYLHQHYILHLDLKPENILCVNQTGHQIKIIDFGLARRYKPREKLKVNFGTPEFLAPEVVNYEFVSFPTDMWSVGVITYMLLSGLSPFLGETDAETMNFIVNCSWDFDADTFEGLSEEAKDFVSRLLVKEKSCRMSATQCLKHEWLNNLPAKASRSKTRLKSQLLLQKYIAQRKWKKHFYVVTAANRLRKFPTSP
# [2] = target: T2, Testis-specific serine/threonine-protein kinase 1 (Homo sapiens) (UniProt Q9BXA7); assay: Selectivity interaction (KinomeScan (DiscoverX)) EUB0000045b TSSK1A
# T2 sequence (whole entry): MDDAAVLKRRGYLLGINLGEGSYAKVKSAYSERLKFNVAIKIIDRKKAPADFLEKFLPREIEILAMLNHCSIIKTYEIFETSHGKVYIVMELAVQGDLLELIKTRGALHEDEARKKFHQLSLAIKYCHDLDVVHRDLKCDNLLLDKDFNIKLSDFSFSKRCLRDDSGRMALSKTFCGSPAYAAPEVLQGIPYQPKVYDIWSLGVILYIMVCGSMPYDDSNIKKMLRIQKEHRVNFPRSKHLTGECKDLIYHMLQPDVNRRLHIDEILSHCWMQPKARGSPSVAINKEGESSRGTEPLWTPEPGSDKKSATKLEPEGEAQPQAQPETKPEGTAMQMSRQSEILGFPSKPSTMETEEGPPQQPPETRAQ
# [3] = target: Beta-1 adrenergic receptor (Homo sapiens, UniProt P08588); assay: Selectivity interaction (Panel of non-epigenetic targets (kinases, GPCRs, ion channels, and transporters, Eurofins) ) EUB0000271b ADRB1; details: at 1 µM
# Sequence of Beta-1 adrenergic receptor (P08588 whole entry, looked up): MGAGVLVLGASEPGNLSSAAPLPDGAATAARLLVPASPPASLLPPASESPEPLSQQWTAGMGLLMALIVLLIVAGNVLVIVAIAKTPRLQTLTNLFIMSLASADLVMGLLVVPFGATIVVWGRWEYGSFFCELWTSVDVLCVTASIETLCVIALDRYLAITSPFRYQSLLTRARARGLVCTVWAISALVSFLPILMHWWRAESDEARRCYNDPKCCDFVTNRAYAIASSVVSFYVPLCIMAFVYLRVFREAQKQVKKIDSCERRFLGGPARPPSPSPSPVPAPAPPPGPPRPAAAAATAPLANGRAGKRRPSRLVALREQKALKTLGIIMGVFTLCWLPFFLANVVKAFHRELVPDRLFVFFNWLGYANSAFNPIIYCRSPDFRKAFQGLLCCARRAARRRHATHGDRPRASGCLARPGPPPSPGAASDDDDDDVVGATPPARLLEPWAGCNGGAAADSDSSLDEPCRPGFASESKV
# [4] = target: Protein kinase C eta type (Homo sapiens) (UniProt P24723); assay: Selectivity interaction (KinomeScan (DiscoverX)) EUB0000618a PRKCH; details: at 10 µM
# [5] = system: Serine/threonine-protein kinase B-raf (Homo sapiens), P15056 [V600E]; assay: Selectivity interaction (KinomeScan (DiscoverX)) EUB0000618a BRAF; details: at 10 µM
# Sequence of Serine/threonine-protein kinase B-raf (Homo sapiens), P15056 [V600E] (P15056 whole entry V600E): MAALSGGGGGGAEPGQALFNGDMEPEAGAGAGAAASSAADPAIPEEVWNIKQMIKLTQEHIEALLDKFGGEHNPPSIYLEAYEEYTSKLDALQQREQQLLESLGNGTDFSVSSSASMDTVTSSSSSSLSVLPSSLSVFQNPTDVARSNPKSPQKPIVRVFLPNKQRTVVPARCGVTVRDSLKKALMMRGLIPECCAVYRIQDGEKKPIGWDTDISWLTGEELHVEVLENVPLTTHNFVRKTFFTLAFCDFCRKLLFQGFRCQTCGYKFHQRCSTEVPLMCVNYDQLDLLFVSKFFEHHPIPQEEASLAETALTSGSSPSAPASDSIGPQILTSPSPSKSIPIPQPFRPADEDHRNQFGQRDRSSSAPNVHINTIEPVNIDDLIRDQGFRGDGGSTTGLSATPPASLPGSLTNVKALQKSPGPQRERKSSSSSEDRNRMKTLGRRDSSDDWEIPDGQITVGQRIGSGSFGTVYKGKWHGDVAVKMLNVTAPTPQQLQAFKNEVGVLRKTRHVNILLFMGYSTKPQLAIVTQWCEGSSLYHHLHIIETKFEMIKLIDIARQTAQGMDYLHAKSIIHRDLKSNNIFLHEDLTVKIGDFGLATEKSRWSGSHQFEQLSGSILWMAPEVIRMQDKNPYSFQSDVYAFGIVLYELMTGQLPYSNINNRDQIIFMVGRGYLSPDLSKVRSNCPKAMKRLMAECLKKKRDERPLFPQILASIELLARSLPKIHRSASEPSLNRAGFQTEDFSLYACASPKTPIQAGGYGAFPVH
# [6] = target: Serine/threonine-protein kinase PAK 2 (Homo sapiens) (UniProt Q13177); assay: Selectivity interaction (KinomeScan (DiscoverX)) EUB0000618a PAK2; details: at 10 µM
# Sequence of Serine/threonine-protein kinase PAK 2 (Homo sapiens) (Q13177 whole entry): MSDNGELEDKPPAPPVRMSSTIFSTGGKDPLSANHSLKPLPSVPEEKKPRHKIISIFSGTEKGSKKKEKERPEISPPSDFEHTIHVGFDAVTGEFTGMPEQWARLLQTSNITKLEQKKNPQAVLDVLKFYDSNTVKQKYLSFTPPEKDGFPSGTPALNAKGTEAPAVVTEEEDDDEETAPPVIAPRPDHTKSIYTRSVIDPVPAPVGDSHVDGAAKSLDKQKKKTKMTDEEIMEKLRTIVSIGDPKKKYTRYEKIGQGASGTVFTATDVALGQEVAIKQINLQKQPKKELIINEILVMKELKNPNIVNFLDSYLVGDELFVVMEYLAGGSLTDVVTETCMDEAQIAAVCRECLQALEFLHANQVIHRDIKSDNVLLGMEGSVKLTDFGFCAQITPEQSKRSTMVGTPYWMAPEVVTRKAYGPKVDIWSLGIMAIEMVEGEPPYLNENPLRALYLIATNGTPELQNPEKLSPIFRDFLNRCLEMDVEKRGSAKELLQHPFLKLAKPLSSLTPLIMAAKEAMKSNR
# [7] = target: Vasopressin V1a receptor (Homo sapiens) (UniProt P37288); assay: Selectivity interaction (Panel of kinases, GPCRs, ion channels and transporters (enzymatic assay)) EUB0000266bCl AVPR1A
# Sequence of Vasopressin V1a receptor (Homo sapiens) (P37288 whole entry, looked up): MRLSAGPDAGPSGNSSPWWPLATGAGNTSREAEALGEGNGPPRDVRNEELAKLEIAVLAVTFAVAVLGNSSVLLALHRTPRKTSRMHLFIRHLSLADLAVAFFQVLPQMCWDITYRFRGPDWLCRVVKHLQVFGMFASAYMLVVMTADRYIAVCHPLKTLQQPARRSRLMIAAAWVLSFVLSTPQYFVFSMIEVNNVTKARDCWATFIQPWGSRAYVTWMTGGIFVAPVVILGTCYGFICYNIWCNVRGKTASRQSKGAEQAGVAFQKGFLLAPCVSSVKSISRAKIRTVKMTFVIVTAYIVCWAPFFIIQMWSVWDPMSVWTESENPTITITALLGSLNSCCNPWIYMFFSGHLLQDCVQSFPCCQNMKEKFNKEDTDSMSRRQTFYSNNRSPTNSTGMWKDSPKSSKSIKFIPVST
# [8] = target: T3, Mitogen-activated protein kinase kinase kinase 12 (Homo sapiens) (UniProt Q12852); details: at 10 µM
# T3 sequence (whole entry): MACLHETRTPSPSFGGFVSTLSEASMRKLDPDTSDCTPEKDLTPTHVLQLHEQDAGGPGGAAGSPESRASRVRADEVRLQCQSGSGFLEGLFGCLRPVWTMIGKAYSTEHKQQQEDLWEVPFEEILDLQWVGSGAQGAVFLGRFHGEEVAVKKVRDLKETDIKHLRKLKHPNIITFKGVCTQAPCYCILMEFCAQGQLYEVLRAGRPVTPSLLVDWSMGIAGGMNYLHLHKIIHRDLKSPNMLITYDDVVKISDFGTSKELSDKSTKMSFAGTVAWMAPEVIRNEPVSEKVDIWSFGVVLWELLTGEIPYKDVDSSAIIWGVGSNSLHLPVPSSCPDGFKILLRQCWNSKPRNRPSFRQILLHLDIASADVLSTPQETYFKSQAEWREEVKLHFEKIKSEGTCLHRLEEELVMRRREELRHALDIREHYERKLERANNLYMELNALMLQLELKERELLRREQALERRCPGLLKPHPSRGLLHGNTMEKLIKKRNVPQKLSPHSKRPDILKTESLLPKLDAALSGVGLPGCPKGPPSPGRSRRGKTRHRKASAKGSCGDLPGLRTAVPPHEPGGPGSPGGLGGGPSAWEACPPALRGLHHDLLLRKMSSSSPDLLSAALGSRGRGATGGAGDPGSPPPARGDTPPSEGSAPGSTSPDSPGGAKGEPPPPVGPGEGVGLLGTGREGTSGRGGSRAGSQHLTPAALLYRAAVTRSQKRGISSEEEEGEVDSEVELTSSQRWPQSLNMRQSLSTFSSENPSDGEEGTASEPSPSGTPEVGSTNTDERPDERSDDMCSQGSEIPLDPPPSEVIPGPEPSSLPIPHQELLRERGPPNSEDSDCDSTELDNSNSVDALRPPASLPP
# [9] = target: Protein-tyrosine kinase 6 (Homo sapiens, UniProt Q13882); assay: Selectivity interaction (KinomeScan (DiscoverX)) EUB0000092b PTK6; details: at 10 µM
# Sequence of Protein-tyrosine kinase 6 (Q13882 whole entry, looked up): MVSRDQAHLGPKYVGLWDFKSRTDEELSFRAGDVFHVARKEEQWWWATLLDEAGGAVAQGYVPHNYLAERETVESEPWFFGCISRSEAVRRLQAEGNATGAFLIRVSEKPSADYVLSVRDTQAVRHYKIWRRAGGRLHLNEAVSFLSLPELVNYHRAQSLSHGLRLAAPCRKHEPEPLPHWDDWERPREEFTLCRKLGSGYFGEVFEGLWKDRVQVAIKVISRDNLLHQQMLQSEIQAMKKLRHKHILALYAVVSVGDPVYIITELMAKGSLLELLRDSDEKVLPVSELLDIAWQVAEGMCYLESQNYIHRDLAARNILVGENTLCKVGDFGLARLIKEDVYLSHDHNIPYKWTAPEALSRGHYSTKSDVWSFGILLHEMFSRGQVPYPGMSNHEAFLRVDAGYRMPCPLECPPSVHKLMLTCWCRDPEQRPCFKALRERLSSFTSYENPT
# [10] = target: Serine/threonine-protein kinase 38-like (Homo sapiens) (UniProt Q9Y2H1); assay: Selectivity interaction (Ambit KINOMEscan and KiNATiv profiling in Jurkat cells) EUB0000090b STK38L; assay type: cell-based; details: at 1 µM
# Sequence of Serine/threonine-protein kinase 38-like (Homo sapiens) (Q9Y2H1 2-464 limits assumed): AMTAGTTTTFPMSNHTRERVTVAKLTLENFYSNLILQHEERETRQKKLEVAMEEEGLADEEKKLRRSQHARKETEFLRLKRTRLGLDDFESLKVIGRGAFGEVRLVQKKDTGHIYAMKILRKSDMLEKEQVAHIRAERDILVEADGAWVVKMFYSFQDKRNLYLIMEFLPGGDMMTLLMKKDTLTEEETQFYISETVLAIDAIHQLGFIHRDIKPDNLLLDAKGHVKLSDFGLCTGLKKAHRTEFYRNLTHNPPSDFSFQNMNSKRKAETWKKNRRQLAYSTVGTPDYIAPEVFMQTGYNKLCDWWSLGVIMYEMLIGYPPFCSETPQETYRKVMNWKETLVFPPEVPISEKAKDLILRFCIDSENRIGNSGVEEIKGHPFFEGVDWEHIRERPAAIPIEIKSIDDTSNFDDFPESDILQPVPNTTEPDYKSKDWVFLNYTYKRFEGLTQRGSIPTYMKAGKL
# [11] = target: Casein kinase I isoform gamma-3 (Homo sapiens) (UniProt Q9Y6M4); assay: Selectivity interaction (Ambit KINOMEscan and KiNATiv profiling in Jurkat cells) EUB0000090b CSNK1G3; assay type: cell-based; details: at 1 µM
# Sequence of Casein kinase I isoform gamma-3 (Homo sapiens) (Q9Y6M4 whole entry, looked up, canonical isoform): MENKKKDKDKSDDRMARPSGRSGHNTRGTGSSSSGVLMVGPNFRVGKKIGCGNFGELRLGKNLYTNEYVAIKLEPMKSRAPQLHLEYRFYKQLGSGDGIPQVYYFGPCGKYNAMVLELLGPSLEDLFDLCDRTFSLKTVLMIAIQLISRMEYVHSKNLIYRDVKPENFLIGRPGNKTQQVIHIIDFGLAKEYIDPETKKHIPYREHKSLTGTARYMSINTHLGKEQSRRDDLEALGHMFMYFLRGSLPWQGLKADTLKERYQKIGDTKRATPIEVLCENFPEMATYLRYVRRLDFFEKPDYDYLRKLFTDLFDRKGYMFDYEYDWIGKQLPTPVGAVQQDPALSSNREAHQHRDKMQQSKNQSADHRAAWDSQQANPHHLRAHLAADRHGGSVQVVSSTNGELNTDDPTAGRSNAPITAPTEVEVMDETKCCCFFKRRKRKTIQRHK
# [12] = target: Serine/threonine-protein kinase SIK3 (Homo sapiens) (UniProt Q9Y2K2); assay: Selectivity interaction (Ambit KINOMEscan and KiNATiv profiling in Jurkat cells) EUB0000090b SIK3; assay type: cell-based; details: at 1 µM
# Sequence of Serine/threonine-protein kinase SIK3 (Homo sapiens) (Q9Y2K2 whole entry, looked up): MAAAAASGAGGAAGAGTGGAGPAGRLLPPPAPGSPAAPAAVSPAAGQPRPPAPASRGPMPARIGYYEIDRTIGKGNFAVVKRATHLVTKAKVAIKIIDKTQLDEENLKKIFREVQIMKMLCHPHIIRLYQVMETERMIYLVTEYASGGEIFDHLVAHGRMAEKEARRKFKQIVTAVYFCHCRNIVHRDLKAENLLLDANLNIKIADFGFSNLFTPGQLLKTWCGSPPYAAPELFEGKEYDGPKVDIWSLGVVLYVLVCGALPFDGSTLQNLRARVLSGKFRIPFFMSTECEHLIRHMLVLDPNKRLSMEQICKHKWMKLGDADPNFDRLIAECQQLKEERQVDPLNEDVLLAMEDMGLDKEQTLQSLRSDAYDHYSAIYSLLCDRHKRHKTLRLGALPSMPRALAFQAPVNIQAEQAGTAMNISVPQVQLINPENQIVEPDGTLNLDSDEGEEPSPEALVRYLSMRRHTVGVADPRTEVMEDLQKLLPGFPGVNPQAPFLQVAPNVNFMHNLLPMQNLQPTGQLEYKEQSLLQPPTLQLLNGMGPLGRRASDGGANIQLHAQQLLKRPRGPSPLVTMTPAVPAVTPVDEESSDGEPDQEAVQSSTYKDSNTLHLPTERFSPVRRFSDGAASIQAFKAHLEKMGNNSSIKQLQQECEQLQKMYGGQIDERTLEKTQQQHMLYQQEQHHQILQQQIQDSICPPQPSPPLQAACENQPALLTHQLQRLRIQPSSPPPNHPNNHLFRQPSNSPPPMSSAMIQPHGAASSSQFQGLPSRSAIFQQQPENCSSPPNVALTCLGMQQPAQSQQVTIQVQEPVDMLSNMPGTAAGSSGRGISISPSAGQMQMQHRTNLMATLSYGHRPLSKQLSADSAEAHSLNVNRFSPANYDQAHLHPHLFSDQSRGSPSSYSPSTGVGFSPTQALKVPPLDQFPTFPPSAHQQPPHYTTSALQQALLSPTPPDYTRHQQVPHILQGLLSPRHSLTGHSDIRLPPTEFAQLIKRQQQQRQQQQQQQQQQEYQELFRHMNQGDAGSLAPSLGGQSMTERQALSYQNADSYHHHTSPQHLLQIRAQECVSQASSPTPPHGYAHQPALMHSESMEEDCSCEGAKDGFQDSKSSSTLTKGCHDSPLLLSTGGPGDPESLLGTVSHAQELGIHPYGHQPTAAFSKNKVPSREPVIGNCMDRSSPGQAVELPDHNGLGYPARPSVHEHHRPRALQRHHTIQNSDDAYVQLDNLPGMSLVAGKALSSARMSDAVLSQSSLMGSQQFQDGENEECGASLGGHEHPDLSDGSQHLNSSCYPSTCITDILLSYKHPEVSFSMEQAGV
compound,measurement,setting,value
COc1cc(N(C)c2ccnc3ccc(C(F)(F)F)cc23)cc(OC)c1OC,% binding,[1],100%
C=CC(=O)Nc1cc(-n2c(=O)ccc3cnc4ccc(-c5ccc(NS(C)(=O)=O)cc5)cc4c32)ccc1C,% of control,[2]; at 1 µM,100%
same,% of control,[2]; at 10 µM,74%
Cc1cc(C)cc([C@@H]2c3cc(C)ccc3NC(=O)CN2C(=O)c2ccc(Br)s2)c1,% of inhibition,[3],-13%
O[C@H]1CC[C@H](Nc2ncc3nc(Nc4c(F)cc(F)cc4F)n([C@H]4CCOC4)c3n2)CC1,% of control,[4],96%
same,% of control,[5],98%
same,% of control,[6],100%
CCn1c(-c2nc3cc(C(=O)N4CCCC(N)C4)ccc3n2C)cc2ccccc21 (stereo not drawn),pXC50,[7],< 4.3 M
CCN(CC)CCCCNc1ncc2cc(-c3cc(OC)cc(OC)c3)c(NC(=O)NC(C)(C)C)nc2n1,% of control,[8],100%
CCC(=O)N1CCN(c2ccc(-n3c(=O)ccc4cnc5ccc(-c6cnc7ccccc7c6)cc5c43)cc2C(F)(F)F)CC1,% of control,[9],51%
CN(C)C/C=C/C(=O)Nc1ccc(C(=O)N2CCCC(Nc3ncc(Cl)c(-c4c[nH]c5ccccc45)n3)C2)cc1 (stereo not drawn),% of control,[10],82%
same,% of control,[11],67%
same,% of control,[12],99%
